From US9428504B2, “7-hydroxy-spiropipiperidine indolinyl antagonists of P2Y1 receptor” (BRISTOL-MYERS SQUIBB COMPANY, priority 2012, dated 2016)

System: human platelet rich plasma (PRP)
Experiment: ADP induced platelet aggregation assay
Conditions: Homo sapiens, Platelet, read-out: PA IC50 (μM) @ 10 μM ADP, platelet aggregation induced by 10 μM ADP, human PRP

| Compound | IC50 [µM] |
| --- | --- |
| CC(C)(C)CN1CCC2(CC1)CN(c1ccccc1NC(=O)Nc1ccc(C(C)(C)C)cc1)c1c2ccc(F)c1O [Example 2, 1-(4-tert-Butylphenyl)-3-(2-(6-fluoro-7-hydroxy-1′-neopentylspiro[indoline-3,4′-piperidine]-1-yl)phenyl)urea] | 0.6 |
| CC(C)(C)CN1CCC2(CC1)CN(c1ccccc1NC(=O)Nc1nc3ccc(F)cc3s1)c1c(O)ccc(C(F)(F)F)c12 [Example 3, 1-(6-Fluorobenzo[d]thiazol-2-yl)-3-(2-(7-hydroxy-1′-neopentyl-4-(trifluoromethyl)spiro[indoline-3,4′-piperidine]-1-yl)phenyl)urea] | 0.1 |
| CC(C)CN1CCC2(CC1)CN(c1ccccc1NC(=O)Nc1nc3ccc(F)cc3s1)c1c(O)ccc(Cl)c12 [Example 4, 1-(2-(4-Chloro-7-hydroxy-1′-isobutylspiro[indoline-3,4′-piperidine]-1-yl)phenyl)-3-(6-fluorobenzo[d]thiazol-2-yl)urea] | 0.4 |
| CC(C)(C)CN1CCC2(CC1)CN(c1ccc(F)cc1NC(=O)Nc1nc3ccc(F)cc3s1)c1c(O)ccc(Cl)c12 [Example 68, 1-(2-(4-Chloro-7-hydroxy-1′-neopentylspiro[indoline-3,4′-piperidine]-1-yl)-5-fluorophenyl)-3-(6-fluorobenzo[d]thiazol-2-yl)urea] | 0.7 |
| CC(C)(C)CN1CCC2(CC1)CN(c1ccccc1NC(=O)Nc1ccc(OC(F)(F)F)cc1)c1c(O)cc(F)cc12 [Example 76, 1-(2-(5-Fluoro-7-hydroxy-1′-neopentylspiro[indoline-3,4′-piperidine]-1-yl)phenyl)-3-(4-(trifluoromethoxy)phenyl)urea] | 0.7 |
| COc1ccc2nc(NC(=O)Nc3ccccc3N3CC4(CCN(CC(C)(C)C)CC4)c4c(C#N)ccc(O)c43)sc2c1 [Example 86, l-(2-(4-Cyano-7-hydroxy-1′-neopentylspiro[indoline-3,4′-piperidin]-1-yl)phenyl)-3-(6-methoxybenzo[d]thiazol-2-yl)urea] | 0.8 |
| CC(C)c1nsc(NC(=O)Nc2ccccc2N2CC3(CCN(CC(C)(C)C)CC3)c3c(C#N)ccc(O)c32)n1 [Example 88, l-(2-(4-Cyano-7-hydroxy-1′-neopentylspiro[indoline-3,4′-piperidin]-1-yl)phenyl)-3-(3-isopropyl-1,2,4-thiadiazol-5-yl)urea] | 0.9 |
| CC(C)(C)CN1CCC2(CC1)CN(c1ccccc1NC(=O)Nc1nc3ccc(Cl)cc3s1)c1c(O)cc(F)c(Cl)c12 [Example 94, 1-(2-(4-Chloro-5-fluoro-7-hydroxy-1′-neopentylspiro [indoline-3,4′-piperidine]-1-yl)phenyl)-3-(6-chlorobenzo[d]thiazol-2-yl)urea] | 0.7 |
| CC(C)(C)CN1CCC2(CC1)CN(c1ccccc1NC(=O)Nc1csc(Cl)n1)c1c(O)cc(F)c(Cl)c12 [Example 103, 1-(2-(4-Chloro-5-fluoro-7-hydroxy-1′-neopentylspiro [indoline-3,4′-piperidin]-1-yl)phenyl)-3-(2-chlorothiazol-4-yl)urea] | 0.3 |
| CC(C)(C)CN1CCC2(CC1)CN(c1ccccc1NC(=O)Nc1nc3ccc(Cl)nc3s1)c1c(O)ccc(-c3nc4cc(C(F)(F)F)ccc4s3)c12 [Example 109, 1-(5-Chlorothiazolo[5,4-b]pyridin-2-yl)-3-(2-(7-hydroxy-1′-neopentyl-4-(5-(trifluoromethyl)benzo[d]thiazol-2-yl)spiro[indoline-3,4′-piperidin]-1-yl)phenyl)urea] | 0.4 |
| CC(C)(C)CN1CCC2(CC1)CN(c1ccccc1NC(=O)Nc1nc3ccc(Cl)nc3s1)c1c(O)ccc(-c3nc4cc(Cl)ccc4s3)c12 [Example 110, 1-(2-(4-(5-Chlorobenzo[d]thiazol-2-yl)-7-hydroxy-1′-neopentylspiro[indoline-3,4′-piperidin]-1-yl)phenyl)-3-(5-chlorothiazolo[5,4-b]pyridin-2-yl)urea] | 0.5 |
| CC(C)(C)CN1CCC2(CC1)CN(c1ccccc1NC(=O)Nc1csc(Cl)n1)c1c(O)ccc(-c3nc4cc(Cl)ccc4s3)c12 [Example 111, 1-(2-(4-(5-Chlorobenzo[d]thiazol-2-yl)-7-hydroxy-1′-neopentylspiro[indoline-3,4′-piperidine]-1-yl)phenyl)-3-(2-chlorothiazol-4-yl)urea] | 0.2 |
| CC(C)(C)CN1CCC2(CC1)CN(c1ccccc1NC(=O)Nc1csc(Cl)n1)c1c(O)ccc(-c3nc4cccc(Cl)c4s3)c12 [Example 122, 1-(2-(4-(7-Chlorobenzo[d]thiazol-2-yl)-7-hydroxy-1′-neopentylspiro[indoline-3,4′-piperidin]-1-yl)phenyl)-3-(2-chlorothiazol-4-yl)urea] | 0.4 |
| CC(C)(C)CN1CCC2(CC1)CN(c1ccccc1NC(=O)Nc1nc3ccc(Cl)cc3s1)c1c(O)ccc(-c3nc4cc(F)ccc4s3)c12 [Example 127, 1-(6-Chlorobenzo[d]thiazol-2-yl)-3-(2-(4-(5-fluorobenzo[d]thiazol-2-yl)-7-hydroxy-1′-neopentylspiro[indoline-3,4′-piperidin]-1-yl)phenyl)urea] | 0.5 |
| CC(C)(C)CN1CCC2(CC1)CN(c1ccccc1NC(=O)Nc1nc3ccc(F)cc3s1)c1c(O)ccc(-c3nc4cc(Cl)ccc4s3)c12 [Example 133, 1-(2-(4-(5-Chlorobenzo[d]thiazol-2-yl)-7-hydroxy-1′-neopentylspiro[indoline-3,4′-piperidin]-1-yl)phenyl)-3-(6-fluorobenzo[d]thiazol-2-yl)urea] | 0.3 |
| CC(C)(C)CN1CCC2(CC1)CN(c1ccccc1NC(=O)Nc1ccc(OC(F)(F)F)cc1)c1c(O)ccc(-c3nc4cc(Cl)ccc4s3)c12 [Example 134, 1-(2-(4-(5-Chlorobenzo[d]thiazol-2-yl)-7-hydroxy-1′-neopentylspiro[indoline-3,4′-piperidin]-1-yl)phenyl)-3-(4-(trifluoromethoxy)phenyl)urea] | 0.4 |
| CC(C)(C)CN1CCC2(CC1)CN(c1ccccc1NC(=O)Nc1ccc(OC(F)(F)F)cc1)c1c(O)ccc(-c3nc4ccc(Cl)cc4s3)c12 [Example 136, 1-(2-(4-(6-Chlorobenzo[d]thiazol-2-yl)-7-hydroxy-1′-neopentylspiro[indoline-3,4′-piperidin]-1-yl)phenyl)-3-(4-(trifluoromethoxy)phenyl)urea] | 0.5 |
| CC(C)(C)CN1CCC2(CC1)CN(c1ccccc1NC(=O)Nc1nc3ccc(F)cc3s1)c1c(O)ccc(-c3nc4ccc(Cl)cc4s3)c12 [Example 139, 1-(2-(4-(6-Chlorobenzo[d]thiazol-2-yl)-7-hydroxy-1′-neopentylspiro[indoline-3,4′-piperidin]-1-yl)phenyl)-3-(6-fluorobenzo[d]thiazol-2-yl)urea] | 0.4 |
| CC(C)CN1CCC2(CC1)CN(c1ccccc1NC(=O)Nc1ccc(OC(F)(F)F)cc1)c1c(O)ccc(-c3nc4cc(Cl)ccc4s3)c12 [Example 142, 1-(2-(4-(5-Chlorobenzo[d]thiazol-2-yl)-7-hydroxy-1′-isobutylspiro[indoline-3,4′-piperidine]-1-yl)phenyl)-3-(4-(trifluoromethoxy)phenyl)urea] | 0.5 |
| CC(C)N1CCC2(CC1)CN(c1ccccc1NC(=O)Nc1ccc(OC(F)(F)F)cc1)c1c(O)ccc(-c3nc4cc(Cl)ccc4s3)c12 [Example 143, 1-(2-(4-(5-Chlorobenzo[d]thiazol-2-yl)-7-hydroxy-1′-isopropylspiro[indoline-3,4′-piperidine]-1-yl)phenyl)-3-(4(trifluoromethoxy)phenyl)urea] | 0.9 |
| CC(C)(C)CN1CCC2(CC1)CN(c1ccccc1NC(=O)Nc1nc3ccc(F)cc3s1)c1c(O)ccc(-c3nc4ccc(F)cc4s3)c12 [Example 148, 1-(6-Fluorobenzo[d]thiazol-2-yl)-3-(2-(4-(6-fluorobenzo[d]thiazol-2-yl)-7-hydroxy-1′-neopentylspiro[indoline-3,4′-piperidin]-1-yl)phenyl)urea] | 0.3 |
| CC(C)(C)CN1CCC2(CC1)CN(c1ccccc1NC(=O)Nc1csc(Cl)n1)c1c(O)cc(F)c(-c3ccc(Cl)cc3)c12 [Example 163, 1-(2-(4-(4-Chlorophenyl)-5-fluoro-7-hydroxy-1′-neopentylspiro[indoline-3,4′-piperidin]-1-yl)phenyl)-3-(2-chlorothiazol-4-yl)urea] | 0.1 |
| CC(C)CN1CCC2(CC1)CN(c1ccccc1NC(=O)Nc1nc3ccc(Cl)nc3s1)c1c(O)ccc(C(F)(F)F)c12 [Example 171, 1-(5-Chlorothiazolo[5,4-b]pyridin-2-yl)-3-(2-(7-hydroxy-1′-isobutyl-4-(trifluoromethyl)spiro[indoline-3,4′-piperidine]-1-yl)phenyl)urea] | 0.3 |
| COc1ccc2nc(NC(=O)Nc3ccccc3N3CC4(CCN(CC(C)(C)C)CC4)c4c(C#N)ccc(O)c43)sc2n1 [Example 177, 1-(2-(4-Cyano-7-hydroxy-1′-neopentylspiro[indoline-3,4′-piperidine]-1-yl)phenyl)-3-(5-methoxythiazolo[5,4-b]pyridin-2-yl)urea] | 0.7 |
| CC(C)(C)CN1CCC2(CC1)CN(c1ccccc1NC(=O)Nc1nc3ccc(F)nc3s1)c1c(O)ccc(C#N)c12 [Example 180, 1-(2-(4-Cyano-7-hydroxy-1′-neopentylspiro[indoline-3,4′-piperidine]-1-yl)phenyl)-3-(5-fluorothiazolo[5,4-b]pyridin-2-yl)urea] | 0.9 |

Same assay, conditions: read-out: PA IC50 (μM) @ 10 μM ADP; platelet aggregation induced by 10 μM ADP, human PRP

| Compound | IC50 [µM] |
| --- | --- |
| CC(C)(C)CN1CCC2(CC1)CN(c1ccccc1NC(=O)Nc1ccc(OC(F)(F)F)cc1)c1c(O)cc(F)c(-c3nc4ccc(F)cc4s3)c12 [Example 151, 1-(2-(5-Fluoro-4-(6-fluorobenzo[d]thiazol-2-yl)-7-hydroxy-1′-neopentylspiro[indoline-3,4′-piperidin]-1-yl)phenyl)-3-(4-(trifluoromethoxy)phenyl)urea] | 0.3 |

Target: cloned human P2Y1 receptors (Homo sapiens (Human), UniProt P47900)
Experiment: Binding Assay B: Scintillation Proximity Assay (SPA) for P2Y1 binding
Conditions: SPA, [33P] 2MeS-ADP displacement; read-out: P2Y1 Ki (nM) using binding assay B
Description: A SPA membrane binding assay was used to identify inhibitors of [^33P] […] Binding reactions were performed in 384-well OptiPlates (PerkinElmer Life Sciences, Cat #6007299) in a volume of 50 μL containing ˜15 fmol of P2Y1 receptor (1.7 μg of total protein), 0.3 nM [^33P] […] Reactions were allowed to proceed to completion at room temperature for 1 hour followed by centrifugation of the plate for 5 min. About 40 μL of the aqueous solution was aspirated. Plates were sealed and the [^33P]

Sequence of cloned human P2Y1 receptors (P47900 whole entry): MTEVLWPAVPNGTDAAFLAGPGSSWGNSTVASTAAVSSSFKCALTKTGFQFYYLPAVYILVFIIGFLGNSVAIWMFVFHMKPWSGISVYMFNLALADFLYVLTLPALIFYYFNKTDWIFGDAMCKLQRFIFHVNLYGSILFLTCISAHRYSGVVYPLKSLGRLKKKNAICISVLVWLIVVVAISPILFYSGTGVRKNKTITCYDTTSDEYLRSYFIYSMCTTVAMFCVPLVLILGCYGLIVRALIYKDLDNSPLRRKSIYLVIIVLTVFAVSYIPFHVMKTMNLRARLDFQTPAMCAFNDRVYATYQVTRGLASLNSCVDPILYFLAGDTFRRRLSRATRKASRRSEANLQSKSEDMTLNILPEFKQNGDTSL

| Compound | Ki [nM] |
| --- | --- |
| CC(C)(C)CN1CCC2(CC1)CN(c1ccccc1NC(=O)Nc1ccc(C(C)(C)C)cc1)c1c2ccc(F)c1O [Example 2, 1-(4-tert-Butylphenyl)-3-(2-(6-fluoro-7-hydroxy-1′-neopentylspiro[indoline-3,4′-piperidine]-1-yl)phenyl)urea] | 9 |
| CC(C)(C)CN1CCC2(CC1)CN(c1ccccc1NC(=O)Nc1nc3ccc(F)cc3s1)c1c(O)ccc(C(F)(F)F)c12 [Example 3, 1-(6-Fluorobenzo[d]thiazol-2-yl)-3-(2-(7-hydroxy-1′-neopentyl-4-(trifluoromethyl)spiro[indoline-3,4′-piperidine]-1-yl)phenyl)urea] | 8.9 |
| CC(C)CN1CCC2(CC1)CN(c1ccccc1NC(=O)Nc1nc3ccc(F)cc3s1)c1c(O)ccc(Cl)c12 [Example 4, 1-(2-(4-Chloro-7-hydroxy-1′-isobutylspiro[indoline-3,4′-piperidine]-1-yl)phenyl)-3-(6-fluorobenzo[d]thiazol-2-yl)urea] | 9.9 |
